{"source": "patent US20260345517A1", "about": "“DOSAGE REGIMENS FOR TREATING STARGARDT DISEASE” (Alkeus Pharmaceuticals, Inc., priority 2024, published 2026)", "assay_type_in_all_cases": "in vivo, human", "key": {"[1]": {"experiment": "Open-label multiple dose pharmacokinetic study in healthy volunteers (percentage of deuterated vitamin A in plasma, LC/MS)", "conditions": "for % D3 Vitamin A: average over 24 hours, from AUC", "procedure": "Study Design: This was an open-label, non-randomized, multiple dose study in healthy volunteers aged 21 to 70 years of age (inclusion criteria). Subjects who met all entrance criteria at screening were invited to receive the study medication. There were six treatment arms: 2 mg/day, 3.5 mg/day, 5 mg/day, 7 mg/day, 10 mg/day and 14 mg/day gildeuretinol acetate. For the four lower dose groups, the dose regimen was one capsule per day, orally, to be taken at home, preferably in the evening unless a different time was preferred by the subject. For the two highest doses, the dose regimen was two capsules per day, one in the morning and one in the evening, although subjects with a preference to take both capsules at once were offered to do so. After taking the 1st dose at the study site, subjects were invited to return two and four weeks after starting the treatment.\nThe clinical staff made periodic calls to monitor adverse events and ensure subject compliance. In addition, a text message was sent daily to remind subjects to take their medication. Subjects were instructed to avoid foods that contain large amounts of vitamin A (such as liver-based products), including supplements containing vitamin A, and to report their vitamin A intake by answering a daily text message diary. Fruits and vegetables were permitted without restriction.\nDeuterated retinol (gildeuretinol) (“D3”) and non-deuterated retinol (“Do”) and other vitamin A metabolites were measured to calculate the percentage of deuterated vitamin A in plasma. For all treatment groups, plasma samples were collected at baseline, 14±1 days (“2 weeks”) and 28±1 days (“4 weeks”) after initiation of treatment. Blood samples were usually collected following at least 10 hours of fasting (including last gildeuretinol acetate intake), preferably in the morning. For the 7 mg/day and the 14 mg/day groups only, after the first and last dose, blood samples were collected every 4 hours for 24 hours. A liquid chromatography/mass spectrometry assay was used to measure the metabolite levels.\nTable 2 provides % D3 Retinol (gildeuretinol, i.e. the percentage of deuterated retinol (gildeuretinol) over total retinol (as deuterated+non-deuterated) in plasma measured 12-24 hours following gildeuretinol acetate intake.\nPharmacokinetic Results (integrated levels over 24 hours post dosing): total vitamin A in plasma, both deuterated (gildeuretinol) and non-deuterated (retinol), was measured every 4 hours following administration of 7 mg or 14 mg at the first dose, and following administration of the 28th dose (4 weeks of daily treatment). The area under the curve (AUC) was calculated and the % deuterated % D3 of total vitamin A (as retinol and gildeuretinol) was computed as an average over 24 hours."}, "[2]": {"experiment": "TEASE-1: plasma gildeuretinol (replacement of plasma vitamin A)", "conditions": "for percentage of gildeuretinol over total vitamin A (retinol + gildeuretinol): 8-week pharmacokinetic analysis, plasma", "procedure": "The Tolerability and Effects of gildeuretinol acetate in Stargardt Disease (Clinical trial group 1 also known as TEASE-1) was a 24-month, multicenter, double-masked, placebo-controlled trial designed to evaluate the efficacy and safety of daily oral gildeuretinol acetate in slowing the growth of atrophic retinal lesions in Stargardt disease patients. The trial was conducted at multiple sites in the United States (NCT02402660).\nPatients 12 years or older, clinically diagnosed with Stargardt disease, with at least one ABCA4 mutation, at least one eye presenting with well-demarcated areas of reduced fundus autofluorescence, and with any visual acuity, were eligible.\nPatients were randomized to gildeuretinol acetate 14 mg capsules, gildeuretinol acetate 24 mg capsules, or placebo capsules, to be taken once daily for one year. After one year, 50% of randomly selected patients receiving placebo were crossed over in a 1:1 ratio to gildeuretinol acetate 14 mg capsules or gildeuretinol acetate 24 mg capsules for a second year.\nGildeuretinol acetate and placebo capsules were identical appearing capsules. Patients were advised to avoid vitamin A-containing supplements and liver-based products. Fruits and vegetables contain beta-carotene, not preformed vitamin A, and could be consumed without limitation. Trial visits occurred at 8 weeks and 6, 12, 18, and 24 months following screening and randomization."}, "[3]": {"tested_on": "asymptomatic Stargardt disease patients", "experiment": "TEASE-3: photoreceptor loss (ellipsoid zone band loss) by optical coherence tomography", "conditions": "14 mg daily", "procedure": "FIG. 5 is a graph showing retinal photoreceptor loss over time in three asymptomatic Stargardt disease patients taking gildeuretinol acetate 14 mg daily. Lines are piecewise linear regressions with a knot time of 6 months and show the mean area of retinal photoreceptor loss of both eyes. Each symbol represents the area of photoreceptor loss for calculated for one eye. To measure photoreceptor loss, the ellipsoid zone layer was evaluated on b-scans acquired on Heidelberg engineering optical coherence tomography (Heidelberg, Germany).\n(§1) The tolerability and effects of gildeuretinol acetate in Stargardt Disease (Clinical trial group 3 also known as TEASE-3) study was an open-label, multicenter, case control study designed to evaluate the efficacy and safety of gildeuretinol acetate on the progression of Stargardt disease in asymptomatic individuals. The trial was conducted at multiple sites in the United States.\n(§2) Patients received gildeuretinol acetate 14 mg capsules, to be taken orally once daily. Trial visits occurred every 6 months approximately following screening and treatment start visits.\n(§3) Disease progression was monitored by best-corrected visual acuity (BCVA) reported in number of Early Treatment Diabetic Retinopathy Study (ETDRS) letters, fundus autofluorescence (FAF) imaging, loss of photoreceptors (as measured by the ellipsoid zone band loss) by optical coherence tomography (OCT) according to literature (1-3) and retinal sensitivity by microperimetry.\nMeasurements from the left and right eye for each patient were averaged for each visit to produce a single statistical unit for both eyes(4). For segmented linear regressions, knot times were selected so that three visits were included in the first segment."}, "TEASE-3: safety": {"experiment": "TEASE-3: safety", "conditions": "14 mg daily, three patients", "procedure": "as §2\nOcular safety was assessed by retinal imaging and ocular exam, which included evaluation of the anterior and posterior segments and the lens. Systemic safety was assessed by physical exam, comprehensive clinical labs (biochemistry, hematology, lipids), and 12-lead ECG."}, "[4]": {"tested_on": "asymptomatic Stargardt disease patients", "experiment": "TEASE-3: disease progression", "conditions": "14 mg daily", "procedure": "as §1\nTo assess the safety and efficacy of gildeuretinol acetate in preventing vision loss in asymptomatic individuals, gildeuretinol acetate 14 mg capsules was administered to individuals showing early signs of retinal damage while maintaining approximately 20/20 vision and no subjective loss of vision. […]\nas §3, with “microperimetry. […]” for “microperimetry.”"}}, "note": "Entries after “also recorded” stand apart in the source; their conditions may differ."}
{"smiles": "CC(=O)OC/C=C(C)/C=C/C=C(C)/C=C/C1=C(C)CCCC1(C)C", "note": "[gildeuretinol acetate, C20-D3-retinol acetate]", "values": [{"measurement": "% D3 Vitamin A", "setting": "[1]; 7 mg/day, 1st dose", "result": 38, "unit": "%"}, {"measurement": "% D3 Vitamin A", "setting": "[1]; 7 mg/day, 28th dose", "result": 75, "unit": "%"}, {"measurement": "average percentage of deuterated plasma vitamin A of total vitamin A (retinol + gildeuretinol)", "setting": "[1]; 14 mg once daily, after 4 weeks", "result": 85, "unit": "%"}, {"measurement": "% D3 Vitamin A", "setting": "[1]; 14 mg/day, 1st dose", "result": 52, "unit": "%"}, {"measurement": "% D3 Vitamin A", "setting": "[1]; 14 mg/day, 28th dose", "result": 85, "unit": "%"}, {"measurement": "replacement of vitamin A with gildeuretinol", "setting": "[2]; 14 mg and 24 mg once daily, about 24 months", "result": "over 80%"}, {"measurement": "replacement of plasma vitamin A sustained throughout the treatment period", "setting": "[2]; 14 mg and 24 mg, throughout treatment", "result": "greater than 80%"}, {"measurement": "percentage of gildeuretinol over total vitamin A (retinol + gildeuretinol)", "setting": "[2]; 14 mg", "result": 87, "unit": "%"}, {"measurement": "percentage of gildeuretinol over total vitamin A (retinol + gildeuretinol)", "setting": "[2]; 24 mg", "result": 92, "unit": "%"}, {"measurement": "replacement of serum vitamin A with gildeuretinol", "setting": "[2]; 14 to 24 mg daily, within a matter of weeks", "result": "more than 80%"}, {"measurement": "patients with over 80% of plasma vitamin A replaced", "setting": "[2]; after six months", "result": "39 out of 40"}, {"measurement": "total plasma vitamin A and retinoic acid (combined vitamin A and gildeuretinol-derived forms) versus placebo", "setting": "[2]; gildeuretinol acetate vs placebo groups", "result": "the same"}, {"measurement": "average area of photoreceptor loss", "setting": "[3]", "result": "0.36±0.32", "unit": "mm^2"}, {"measurement": "average area of photoreceptor loss, share of the foveal area", "setting": "[3]", "result": 20, "unit": "%"}, {"measurement": "photoreceptor loss, following years of treatment", "setting": "[3]; after first six months", "result": "trended toward an improvement"}, {"measurement": "photoreceptor loss rate", "setting": "[3]; first six months, average for two patients", "result": "approximately 0.18 mm^2/year"}, {"measurement": "photoreceptor loss, third patient", "setting": "[3]; full treatment period", "result": "no photoreceptors were lost"}, {"measurement": "adverse reactions linked to excessive or insufficient vitamin A", "setting": "TEASE-3: safety", "result": "None of the three treated Stargardt disease asymptomatic patients exhibited adverse reactions"}, {"measurement": "disease progression / vision loss during treatment (in words)", "setting": "[4]; 2 to 4 years, asymptomatic patients", "result": "arrested loss of vision and retinal pathology; also recorded: no observable disease progression; also recorded: effectively prevented vision loss and further retinal damage; also recorded: no vision loss or disease progression"}, {"measurement": "photoreceptor and retinal sensitivity outcomes with prolonged treatment", "setting": "[4]; prolonged treatment", "result": "trended toward an improvement"}]}
